Data as given in US20220193013A1, “Pharmaceutical Composition for Treatment or Prevention of Multiple Inflammatory Disorders” (priority 2020, published 2022).

Key:
[1] = tested on: DSS-induced colitis in mice; experiment: dextran sulfate sodium (DSS)-induced colitis in mice; type: in vivo, mouse
Text: This example provides the results of an in vivo study in a dextran sulfate sodium (DSS)-induced colitis in mice model. Inflammatory bowel diseases (IBD), mainly comprising ulcerative colitis and Crohn's Disease, are complex and multifactorial diseases with unknown etiology. To study human IBD mechanistically, a number of murine models of colitis have been developed. These models are tools to decipher underlying mechanisms of IBD pathogenesis as well as to evaluate potential therapeutics. […] Moreover, many existing IBD-approved drugs have been studied in this model to allow a comparison of new potential drug compounds as compared with existing drugs with approved IBD indications. […] mice were divided into 5 groups of 3-10 mice, provided with standard mouse chow diet ad libitum, and housed up to 5 per cage. Dexamethasone 21-phosphate disodium salt (DMS; Alfa Aesar Catalog #J64083-1G, Lot R02F035) (was used as a positive control. Hemoccult kits were obtained from Beckman (Hemoccult SENSA kit). Dextran sodium sulfate (DSS) reagent grade (MPI Catalog #160110, Lot #6046H, MW 36,000-50,000, CAS 9011-18-1) was supplemented in the water of certain groups to induced IBD-like symptoms. On day −3 treatment began prior to DSS delivery. On day 1 all mice were pre-weighed and given fresh 4-5% DSS in water every day for 5 days and water is then given for the remainder of the study to elicit disease. An additional control group was given water (no DSS) for the duration of the study (10 days). Body weight was measured daily, fecal blood status (hemoccult) was measured 3X per week, fecal consistency 3× per week and general health determined daily. Mice were sacrificed on day 10 and serum obtained for cytokine analysis and colon length and weight determined. There were two control groups of water only and DSS without drug treatment. There were two treatment groups at 69.3 mg/kg (n=10) bid and 23.1 mg/kg bid (n=10).

[2] = tested on: mouse peritoneum macrophages; experiment: LPS-stimulated mouse peritoneal macrophages, cytokine analysis; type: cell-based; conditions: for GM-CSF, Significance @ 12 hour LPS incubation / IFNγ, Significance @ 12 hour LPS incubation / IL-1α, Significance @ 12 hour LPS incubation / IL-1β, Significance @ 12 hour LPS incubation / IL-2, Significance @ 12 hour LPS incubation / IL-4, Significance @ 12 hour LPS incubation / IL-6, Significance @ 12 hour LPS incubation / IL-7, Significance @ 12 hour LPS incubation / IL-10, Significance @ 12 hour LPS incubation / IL-12 (p70), Significance @ 12 hour LPS incubation / IL-13, Significance @ 12 hour LPS incubation / IL-17A, Significance @ 12 hour LPS incubation / KC/CXCL1, Significance @ 12 hour LPS incubation / LIX, Significance @ 12 hour LPS incubation / MCP-1, Significance @ 12 hour LPS incubation / MIP-2, Significance @ 12 hour LPS incubation / TNF-α, Significance @ 12 hour LPS incubation: P value
Description: This example provides an […] study to determine the effect of DA on mouse peritoneum macrophages. Peritoneal exudates were obtained from Balb/c female mice by lavage 4 days after an intraperitoneal injection of 4 ml sterile 4% thioglycollate broth. After washing with RPMI 1640 medium, the cell suspensions were centrifuged at 800 g at 4° C. for 5 min. The red blood cells were eliminated by ACK buffer and the cells were washed and resuspended in RPMI 1640 supplemented with 10% inactivated FBS, 10 mM HEPES, 2 mM glutamine, and 100 U/ml penicillin-[…] streptomycin. The peritoneal macrophages were plated in 24 well tissue culture plate (2×10^5 cells/mL/well) at 37° C. in a 5% CO2 humidified atmosphere. Macrophages were precultured in serum-free RPMI 1640 medium for 24 h to reduce mitogenic effects. Macrophages were pretreated with various concentrations of DA for 1 h prior to LPS treatment and stimulated with LPS (100 ng/mL) for 24 h. Treatment groups were: Table 4 At 12 and 24 h time points of stimulation, ˜200 ul of supernatant were removed and stored (−80° C.) for cytokine analysis ([…]). Cytokines analyzed were—GM-CSF, IFNγ, IL-1a, IL-1β, IL-2, IL-4, IL-5, IL-6, IL-7, IL-10, IL-12 (p70), IL-13, IL-17A, KC/CXCL1, LIX, MCP-1, MIP-2, TNF-α,

[3] = high-dose of DA, no significant difference observed

CC(=O)[O-].CC[N+](CC)(CC(=O)Nc1c(C)cccc1C)Cc1ccccc1 [DA, denatonium acetate]
body weight at day 10 ([1]; 69.3 mg/kg DA, BID, vs vehicle): significant effect against DSS-induced body weight loss
combined fecal score during the study period ([1]; DA 23.1 and 69.3 mg/kg bid): significant main effect
fecal consistency score during the study period ([1]; DA 23.1 and 69.3 mg/kg bid): significant main effect
fecal occult blood scores during the study period ([1]; DA 23.1 and 69.3 mg/kg bid): significant main effect
body weight changes during the study period ([1]; DA 23.1 and 69.3 mg/kg bid, P=0.0052): significant main effect
colon length at day 10 [1, 3]: could counteract DSS-induced decrease
colon weight at day 10 [1, 3]: could counteract DSS-induced decrease
spleen weight at day 10 ([1]; high-dose of DA, no significant effect observed): trend to counteract DSS-induced spleen weight loss
GM-CSF, Significance @ 24 hour LPS incubation ([2]; DA 1 μM): No sig
IFNγ, Significance @ 24 hour LPS incubation ([2]; DA 1 μM): No sig
IL-1α, Significance @ 24 hour LPS incubation ([2]; DA 1 μM): No sig
IL-1β, Significance @ 24 hour LPS incubation ([2]; DA 1 μM): No sig
IL-2, Significance @ 24 hour LPS incubation ([2]; DA 1 μM): No sig
IL-4, Significance @ 24 hour LPS incubation ([2]; DA 1 μM): No sig
IL-6, Significance @ 24 hour LPS incubation ([2]; DA 1 μM): No sig
IL-7, Significance @ 24 hour LPS incubation ([2]; DA 1 μM): No sig
IL-10, Significance @ 24 hour LPS incubation ([2]; DA 1 μM): No sig
IL-12 (p70), Significance @ 24 hour LPS incubation ([2]; DA 1 μM): No sig
IL-13, Significance @ 24 hour LPS incubation ([2]; DA 1 μM): No sig
IL-17A, Significance @ 24 hour LPS incubation ([2]; DA 1 μM): No sig
KC/CXCL1, Significance @ 24 hour LPS incubation ([2]; DA 1 μM): No sig
LIX, Significance @ 24 hour LPS incubation ([2]; DA 1 μM): No sig
MCP-1, Significance @ 24 hour LPS incubation ([2]; DA 1 μM): No sig
MIP-2, Significance @ 24 hour LPS incubation ([2]; DA 1 μM): No sig
TNF-α, Significance @ 24 hour LPS incubation ([2]; DA 1 μM): No sig
GM-CSF, Significance @ 12 hour LPS incubation ([2]; DA 1 μM): 0.029
IFNγ, Significance @ 12 hour LPS incubation ([2]; DA 1 μM): 0.031
IL-1α, Significance @ 12 hour LPS incubation ([2]; DA 1 μM): 0.021
IL-1β, Significance @ 12 hour LPS incubation ([2]; DA 1 μM): 0.023
IL-2, Significance @ 12 hour LPS incubation ([2]; DA 1 μM): 0.005
IL-4, Significance @ 12 hour LPS incubation ([2]; DA 1 μM): 0.009
IL-6, Significance @ 12 hour LPS incubation ([2]; DA 1 μM): 0.096
IL-7, Significance @ 12 hour LPS incubation ([2]; DA 1 μM): 0.024
IL-10, Significance @ 12 hour LPS incubation ([2]; DA 1 μM): 0.045
IL-12 (p70), Significance @ 12 hour LPS incubation ([2]; DA 1 μM): 0.017
IL-13, Significance @ 12 hour LPS incubation ([2]; DA 1 μM): 0.038
IL-17A, Significance @ 12 hour LPS incubation ([2]; DA 1 μM): 0.044
KC/CXCL1, Significance @ 12 hour LPS incubation ([2]; DA 1 μM): No sig
LIX, Significance @ 12 hour LPS incubation ([2]; DA 1 μM): No sig
MCP-1, Significance @ 12 hour LPS incubation ([2]; DA 1 μM): No sig
MIP-2, Significance @ 12 hour LPS incubation ([2]; DA 1 μM): 0.081
TNF-α, Significance @ 12 hour LPS incubation ([2]; DA 1 μM): 0.059
GM-CSF, Significance @ 24 hour LPS incubation ([2]; DA 10 μM): no sig
IFNγ, Significance @ 24 hour LPS incubation ([2]; DA 10 μM): no sig
IL-1α, Significance @ 24 hour LPS incubation ([2]; DA 10 μM): no sig
IL-1β, Significance @ 24 hour LPS incubation ([2]; DA 10 μM): no sig
IL-2, Significance @ 24 hour LPS incubation ([2]; DA 10 μM): no sig
IL-4, Significance @ 24 hour LPS incubation ([2]; DA 10 μM): no sig
IL-6, Significance @ 24 hour LPS incubation ([2]; DA 10 μM): no sig
IL-7, Significance @ 24 hour LPS incubation ([2]; DA 10 μM): no sig
IL-10, Significance @ 24 hour LPS incubation ([2]; DA 10 μM): no sig
IL-12 (p70), Significance @ 24 hour LPS incubation ([2]; DA 10 μM): no sig
IL-13, Significance @ 24 hour LPS incubation ([2]; DA 10 μM): no sig
IL-17A, Significance @ 24 hour LPS incubation ([2]; DA 10 μM): no sig
KC/CXCL1, Significance @ 24 hour LPS incubation ([2]; DA 10 μM): no sig
LIX, Significance @ 24 hour LPS incubation ([2]; DA 10 μM): no sig
MCP-1, Significance @ 24 hour LPS incubation ([2]; DA 10 μM): no sig
MIP-2, Significance @ 24 hour LPS incubation ([2]; DA 10 μM): no sig
TNF-α, Significance @ 24 hour LPS incubation ([2]; DA 10 μM): no sig
GM-CSF, Significance @ 12 hour LPS incubation ([2]; DA 10 μM): no sig
IFNγ, Significance @ 12 hour LPS incubation ([2]; DA 10 μM): 0.037
IL-1α, Significance @ 12 hour LPS incubation ([2]; DA 10 μM): 0.036
IL-1β, Significance @ 12 hour LPS incubation ([2]; DA 10 μM): 0.023
IL-2, Significance @ 12 hour LPS incubation ([2]; DA 10 μM): 0.004
IL-4, Significance @ 12 hour LPS incubation ([2]; DA 10 μM): 0.009
IL-6, Significance @ 12 hour LPS incubation ([2]; DA 10 μM): 0.029
IL-7, Significance @ 12 hour LPS incubation ([2]; DA 10 μM): 0.010
IL-10, Significance @ 12 hour LPS incubation ([2]; DA 10 μM): 0.026
IL-12 (p70), Significance @ 12 hour LPS incubation ([2]; DA 10 μM): 0.007
IL-13, Significance @ 12 hour LPS incubation ([2]; DA 10 μM): 0.019
IL-17A, Significance @ 12 hour LPS incubation ([2]; DA 10 μM): 0.024
KC/CXCL1, Significance @ 12 hour LPS incubation ([2]; DA 10 μM): no sig
LIX, Significance @ 12 hour LPS incubation ([2]; DA 10 μM): no sig
MCP-1, Significance @ 12 hour LPS incubation ([2]; DA 10 μM): no sig
MIP-2, Significance @ 12 hour LPS incubation ([2]; DA 10 μM): 0.021
TNF-α, Significance @ 12 hour LPS incubation ([2]; DA 10 μM): 0.024
GM-CSF, Significance @ 24 hour LPS incubation ([2]; DA 100 μM): no sig
IFNγ, Significance @ 24 hour LPS incubation ([2]; DA 100 μM): no sig
IL-1α, Significance @ 24 hour LPS incubation ([2]; DA 100 μM): no sig
IL-1β, Significance @ 24 hour LPS incubation ([2]; DA 100 μM): no sig
IL-2, Significance @ 24 hour LPS incubation ([2]; DA 100 μM): no sig
IL-4, Significance @ 24 hour LPS incubation ([2]; DA 100 μM): no sig
IL-6, Significance @ 24 hour LPS incubation ([2]; DA 100 μM): no sig
IL-7, Significance @ 24 hour LPS incubation ([2]; DA 100 μM): no sig
IL-10, Significance @ 24 hour LPS incubation ([2]; DA 100 μM): no sig
IL-12 (p70), Significance @ 24 hour LPS incubation ([2]; DA 100 μM): no sig
IL-13, Significance @ 24 hour LPS incubation ([2]; DA 100 μM): no sig
IL-17A, Significance @ 24 hour LPS incubation ([2]; DA 100 μM): no sig
KC/CXCL1, Significance @ 24 hour LPS incubation ([2]; DA 100 μM): no sig
LIX, Significance @ 24 hour LPS incubation ([2]; DA 100 μM): no sig
MCP-1, Significance @ 24 hour LPS incubation ([2]; DA 100 μM): no sig
MIP-2, Significance @ 24 hour LPS incubation ([2]; DA 100 μM): no sig
TNF-α, Significance @ 24 hour LPS incubation ([2]; DA 100 μM): no sig
GM-CSF, Significance @ 12 hour LPS incubation ([2]; DA 100 μM): no sig
IL-10, Significance @ 12 hour LPS incubation ([2]; DA 100 μM): 0.015
IL-12 (p70), Significance @ 12 hour LPS incubation ([2]; DA 100 μM): 0.008
IL-13, Significance @ 12 hour LPS incubation ([2]; DA 100 μM): 0.021
IL-17A, Significance @ 12 hour LPS incubation ([2]; DA 100 μM): 0.042
KC/CXCL1, Significance @ 12 hour LPS incubation ([2]; DA 100 μM): 0.022
LIX, Significance @ 12 hour LPS incubation ([2]; DA 100 μM): no sig
MCP-1, Significance @ 12 hour LPS incubation ([2]; DA 100 μM): no sig
MIP-2, Significance @ 12 hour LPS incubation ([2]; DA 100 μM): 0.033
TNF-α, Significance @ 12 hour LPS incubation ([2]; DA 100 μM): 0.033
